“Also recorded” adds a separate entry of the source.

The test system of data set [1] is mucin layer on the epithelium of the small intestine. The data set is described as follows: Mucin layer density in small intestine (alcian blue). The format is in vivo, rat. Particulars: old rats, 14 days oral, upper jejunum. From the text:
(§1) Small intestine: Full-thickness tissue blocks of the wall of the proximal jejunum (3×5 mm) were fixed from all sides in 10% formalin. Digestive enzymes were detected with primary and secondary antibodies labeled with 3, 3′-diaminobenzidine (DAB, Peroxidase Substrate Kit, ab64238, Abcam®).
The mucin-containing layer on the epithelial cells of the small intestine was stained using alcian blue (pH 2.5, kt 003; Diagnostic BioSystems, Pleasanton, CA) followed by a rinse in distilled water and mounted on a microscope slide (Vector Mount AQ Aqueous Mounting Medium, Vector® Laboratories, Burlington, CA).

The test system of data set [2] is insulin receptor. The data set is described as follows: Brain insulin receptor extracellular domain immunolabel density. It is filed as in vivo, rat. Particulars: old rats, two-week treatment. An excerpt:
Sections without primary antibodies were used as negative controls.
Insulin receptors' densities on random tissue sections, labeled with an antibody against the extracellular domain, are digitally recorded by placing an optical window on the cell and determining light intensity at a constant incident light Io.

Data set [3] has as its system pancreatic trypsin and amylase. The data set is described as follows: Digestive enzyme (trypsin, amylase) accumulation in the intestinal wall, whole mount co-labeling. It is filed as in vivo, rat. Particulars: old rats, 14 days oral; villi tips and submucosa.
Source text: as §1
To co-label the small intestine for mucin and trypsin, the fixed intestine was immersed in the primary antibody against trypsin and stained with DAB substrate. Thereafter the tissue section was embedded in resin and sectioned into thin (1 μm) sections. The mucin label (alcian blue), was applied to the thin section, coverslipped, and imaged.

The subject of data set [4] is pancreatic trypsin. The following applies: old-treated rats (24 months, 14 days oral) compared with young.
Procedure: A femoral venous catheter was placed after general anesthesia (pentobarbital sodium, 50 mg/kg [Abbott Laboratories, North Chicago, Il1], intramuscularly after local anesthesia [2% lidocaine HCl; Hospira, Inc, Lake Forrest, Il1]). Tissues (intestine, liver, lung, heart, kidney, brain, mesentery, skin) were immediately collected after euthanasia (Beuthanasia i.v., 120 mg/kg, Schering-Plough Animal Health Corp, Union, NJ), fixed (formalin, 10%, neutral buffered, 1 hr), postfixed (fresh formalin, 24 hrs), and stored (formalin, 10%). The period between initial anesthesia and fixation of the tissues was below 60 minutes. […]
Primary antibodies were diluted to 1-1.5 μl/1000 μl of phosphate-buffered saline. […] No counterstain was applied to facilitate quantitative label intensity measurements. […] For each tissue, the labeling procedures were standardized among the animal groups to permit a quantitative comparison of label densities between ages and treatment with digital image analysis.
Images of the immunolabel density were recorded at multiple magnifications (between 10× objective, numerical aperture 0.25, and 60×, numerical aperture 1.4). They were recorded under standard light conditions with fixed optical and digital camera settings (SPOT Insight® GIGABIT camera, Sterling Height) so that the camera serves as a quantitative light intensity meter without pixel intensity saturation. […]
Data set [5] can be described thus: Blood glucose level at tissue collection. Particulars: old rats, two-week treatment. It is filed as in vivo, rat. From the text:
At the time of tissue collection, fresh femoral arterial blood was used to measure the blood glucose level (Contour®, Bayer® Diabetes Care, Tarrytown, NY) and the percent of glycated hemoglobin levels (AIC Home Test; Bristol-Myers Squibb®; NY, NY).

A short description of data set [6]: Effect of oral treatment on digestion / body weight. The format is in vivo, rat. The following applies: old rats, temporary oral treatment in drinking water.
Source text: Male Wistar rats (Harlan Sprague Dawley Inc., Indianapolis, IN) at maturity (4 months, 300 to 350 gm) and at old age (24 months, 375 to 450 gm) were included in the study. The animals were maintained on standard laboratory chow (8604 Teklad rodent diet; Harlan Laboratories, Indianapolis, Ind) without restriction and water ad libitum and maintained in a separate room without pathogen-free conditions.

In the case of tranexamic acid [trypsin inhibitor], the “mucin layer density on intestinal villi” value in data set [1] is listed as “partially restored; also recorded: restored in part”. Further, the “density of insulin receptor ectodomains in cerebral cortex” value in data set [2] was “in part restored; also recorded: restored in part”. For the same substance, the “accumulation of trypsin and amylase in the intestinal wall” value in data set [3] was “attenuated”. Also, in data set [4], the “trypsin label density in the brain” value was “almost reached the level in the young (no significant difference)” and the “trypsin label density in the mesentery” value is recorded as “not different from the young”. Besides, the plasma/blood glucose level entry in data set [5] was “mitigated; also recorded: restored in part”. Moreover, the “attenuation of digestion, such as reduction of body weight” value in data set [6] is “did not lead to a detectable attenuation of digestion”.
